Laboratory results reported in US20240408088A1, “PYRAZOLE DERIVATIVE, AND PREPARATION METHOD THEREFOR AND USE THEREOF IN MEDICINE” (Abbisko Therapeutics Co., Ltd., priority 2021, published 2024).

tested on: HCT 116 MTAP knockout cells; assay: Human colon cancer HCT116 cell proliferation inhibition test (MTAP knockout cells, CellTiter-Glo, 6 days); type: cell-based; conditions: not given
Procedure: • 1. HCT 116 MTAP knockout and MTAP wild-type cells were plated in 96-well flat bottom 5 plates, and cultured overnight with McCoy's 5A medium containing […]+1% penicillin-streptomycin at 37° C. and 5% CO2. • 2. On the next day, the compound was dissolved with DMSO, diluted with DMSO and medium successively and transferred to the cell plate. The final concentration of the compound was 10 μM, the compound was diluted 4 times, with 9 concentration gradients, and DMSO control was added. • 3. Cells that have not been treated with the compound were removed. CellTiter-Glo Luminescent Cell Viability Assay (Promega) was used to detect cell viability, the operation was performed with reference to the package insert of the kit, and then the cell plate was placed on EnVision Multilabel Reader to detect the cold light signal. • 4. Meanwhile, the cell plate treated with the compound was cultured at 37° C. and 5% CO2 for 6 consecutive days. • 5. Then, CellTiter-Glo was also used to detect cell viability. • 6. Finally, the four-parameter dose-response curve module of GraphPad Prism v 9.2.0 software was used to plot the dose-response curve and calculate the IC50 for proliferation inhibition (unit: nM).

Question: For `Cn1ncc(-c2cc(C#N)c3c(=O)[nH]nc(CN)c3c2)c1-c1c(F)cc2ccccc2c1C#N` (atropisomer, axis not shown; (P)) [Example 4, (P)-1-(aminomethyl)-7-(5-(1-cyano-3-fluoronaphthalen-2-yl)-1-methyl-1H-pyrazol-4-yl)-4-oxo-3,4-dihydrophthalazine-5-carbonitrile], which IC50 is on record?
Answer: 0.188 µM

Question: With `Cn1ncc(-c2cc(C#N)c3c(=O)[nH]nc(CN)c3c2)c1-c1c(F)cc2ccccc2c1C#N` (atropisomer, axis not shown; (M)) [Example 5, (M)-1-(aminomethyl)-7-(5-(1-cyano-3-fluoronaphthalen-2-yl)-1-methyl-1H-pyrazol-4-yl)-4-oxo-3,4-dihydrophthalazine-5-carbonitrile] as the compound, how does the IC50 read?
Answer: 0.016 µM

same assay, conditions: Homo sapiens, HCT-116, 144 h

Question: With `CN(C)C1CCN(c2cc(OC3CC3)c(C#N)c(-c3c(-c4ccc5c(=O)[nH]nc(CN)c5c4)cnn3C)c2F)C1` (centres unmarked) [Example 27, 2-(4-(4-(aminomethyl)-1-oxo-1,2-dihydrophthalazin-6-yl)-1-methyl-1H-pyrazol-5-yl)-6-cyclopropoxy-4-(3-(dimethylamino)pyrrolidin-1-yl)-3-fluorobenzonitrile] as the compound, how does the IC50 read?
Answer: 0.262 µM

Question: For `Cn1ncc(-c2ccc3c(=O)[nH]nc(CN)c3c2)c1-c1c(F)c(N2CCOCC2)cc(OC2CC2)c1C#N` [Example 15, 2-(4-(4-(aminomethyl)-1-oxo-1,2-dihydrophthalazin-6-yl)-1-methyl-1H-pyrazol-5-yl)-6-cyclopropoxy-3-fluoro-4-morpholinobenzonitrile], which IC50 is on record?
Answer: 0.1 µM

Question: For `Cn1ncc(-c2ccc3c(=O)[nH]nc(CN)c3c2)c1-c1c(F)c(Cl)cc(N2CCC2)c1C#N` [Example 32, 2-(4-(4-(aminomethyl)-1-oxo-1,2-dihydrophthalazin-6-yl)-1-methyl-1H-pyrazol-5-yl)-6-(azetidin-1-yl)-4-chloro-3-fluorobenzonitrile], which IC50 is on record?
Answer: 0.057 µM

Question: With `Cn1ncc(-c2cc(-c3ccccc3)c3c(=O)[nH]nc(CN)c3c2)c1-c1c(F)c(Cl)cc(OC2CC2)c1C#N` [Example 13, 2-(4-(4-(aminomethyl)-1-oxo-8-phenyl-1,2-dihydrophthalazin-6-yl)-1-methyl-1H-pyrazol-5-yl)-4-chloro-6-cyclopropoxy-3-fluorobenzonitrile] as the compound, how does the IC50 read?
Answer: 0.122 µM

Question: With `CC1CCCN1c1cc(Cl)c(F)c(-c2c(-c3ccc4c(=O)[nH]nc(CN)c4c3)cnn2C)c1C#N` (centres unmarked) [Example 20, 2-(4-(4-(aminomethyl)-1-oxo-1,2-dihydrophthalazin-6-yl)-1-methyl-1H-pyrazol-5-yl)-4-chloro-3-fluoro-6-(2-methylpyrrolidin-1-yl)benzonitrile] as the compound, how does the IC50 read?
Answer: 0.061 µM

Question: `Cn1ncc(-c2ccc3c(=O)[nH]nc(CN)c3c2)c1-c1c(F)c(Cl)cc(N2CCC3(CC2)CC3(F)F)c1C#N` [Example 33, 2-(4-(4-(aminomethyl)-1-oxo-1,2-dihydrophthalazin-6-yl)-1-methyl-1H-pyrazol-5-yl)-4-chloro-6-(1,1-difluoro-6-azaspiro[2.5]octan-6-yl)-3-fluorobenzonitrile] was tested. Which IC50 did it give?
Answer: 0.057 µM

Question: `C#Cc1cc(-c2cnn(C)c2-c2c(F)c(Cl)cc(OC3CC3)c2C#N)cc2c(CN)n[nH]c(=O)c12` [Example 7, 2-(4-(4-(aminomethyl)-8-ethynyl-1-oxo-1,2-dihydrophthalazin-6-yl)-1-methyl-1H-pyrazol-5-yl)-4-chloro-6-cyclopropoxy-3-fluorobenzonitrile] was tested. Which IC50 did it give?
Answer: 0.027 µM

Question: For `Cn1ncc(-c2ccc3c(=O)[nH]nc(CN)c3c2)c1-c1c(F)c(N2CCC2)cc(OC2CC2)c1C#N` [Example 17, 2-(4-(4-(aminomethyl)-1-oxo-1,2-dihydrophthalazin-6-yl)-1-methyl-1H-pyrazol-5-yl)-4-(azetidin-1-yl)-6-cyclopropoxy-3-fluorobenzonitrile], which IC50 is on record?
Answer: 0.113 µM

Question: `Cn1ncc(-c2ccc3c(=O)[nH]nc(CN)c3c2)c1-c1c(F)c(Cl)cc(N2C3CCC2CC3)c1C#N` [Example 21, 2-(4-(4-(aminomethyl)-1-oxo-1,2-dihydrophthalazin-6-yl)-1-methyl-1H-pyrazol-5-yl)-6-(7-azabicyclo[2.2.1]heptan-7-yl)-4-chloro-3-fluorobenzonitrile] was tested. Which IC50 did it give?
Answer: 0.161 µM

Question: For `Cn1ncc(-c2ccc3c(=O)[nH]nc(CN)c3c2)c1-c1c(F)c(Cl)cc(OC2CC(F)(F)C2)c1C#N` [Example 37, 2-(4-(4-(aminomethyl)-1-oxo-1,2-dihydrophthalazin-6-yl)-1-methyl-1H-pyrazol-5-yl)-4-chloro-6-(3,3-difluorocyclobutoxy)-3-fluorobenzonitrile], which IC50 is on record?
Answer: 0.133 µM

Question: Which IC50 does the source give for `Cn1ncc(-c2cnc3c(=O)[nH]nc(CN)c3c2)c1-c1c(F)cc2ccccc2c1C#N` [Example 12, 2-(4-(5-(aminomethyl)-8-oxo-7,8-dihydropyrido[2,3-d]pyridazin-3-yl)-1-methyl-1H-pyrazol-5-yl)-3-fluoro-1-naphthalenenitrile] here?
Answer: 1.97 µM

Question: How did the IC50 turn out when `Cn1ncc(-c2ccc3c(=O)[nH]nc(CN)c3c2)c1-c1c(F)c(Cl)cc(N2CC(C)(O)C2)c1C#N` [Example 35, 2-(4-(4-(aminomethyl)-1-oxo-1,2-dihydrophthalazin-6-yl)-1-methyl-1H-pyrazol-5-yl)-4-chloro-3-fluoro-6-(3-hydroxy-3-methylazetidin-1-yl)benzonitrile] was run?
Answer: 0.922 µM

Question: With `Cn1ncc(-c2ccc3c(=O)[nH]nc(CN)c3c2)c1-c1c(F)c(Cl)cc(N2CCCCC2)c1C#N` [Example 22, 2-(4-(4-(aminomethyl)-1-oxo-1,2-dihydrophthalazin-6-yl)-1-methyl-1H-pyrazol-5-yl)-4-chloro-3-fluoro-6-(piperidin-1-yl)benzonitrile] as the compound, how does the IC50 read?
Answer: 0.116 µM

Question: With `CN(C)C1CN(c2cc(OC3CC3)c(C#N)c(-c3c(-c4ccc5c(=O)[nH]nc(CN)c5c4)cnn3C)c2F)C1` [Example 24, 2-(4-(4-(aminomethyl)-1-oxo-1,2-dihydrophthalazin-6-yl)-1-methyl-1H-pyrazol-5-yl)-6-cyclopropoxy-4-(3-(dimethylamino)azetidin-1-yl)-3-fluorobenzonitrile] as the compound, how does the IC50 read?
Answer: 0.229 µM

Question: How did the IC50 turn out when `Cn1ncc(-c2ccc3c(=O)[nH]nc(CN)c3c2)c1-c1c(F)c(Cl)cc(N2CC3(C2)CC(F)(F)C3)c1C#N` [Example 31, 2-(4-(4-(aminomethyl)-1-oxo-1,2-dihydrophthalazin-6-yl)-1-methyl-1H-pyrazol-5-yl)-4-chloro-6-(6,6-difluoro-2-azaspiro[3.3]heptan-2-yl)-3-fluorobenzonitrile] was run?
Answer: 0.093 µM

Question: `C#Cc1cc(-c2cnn(C)c2-c2c(F)c(Cl)cc(N3CCCC3)c2C#N)cc2c(CN)n[nH]c(=O)c12` [Example 10, 2-(4-(4-(aminomethyl)-8-ethynyl-1-oxo-1,2-dihydrophthalazin-6-yl)-1-methyl-1H-pyrazol-5-yl)-4-chloro-3-fluoro-6-(pyrrolidin-1-yl)benzonitrile] was tested. Which IC50 did it give?
Answer: 0.012 µM

Question: How did the IC50 turn out when `Cn1ncc(-c2cc(C3CC3)c3c(=O)[nH]nc(CN)c3c2)c1-c1c(F)c(Cl)cc(N2CCCC2)c1C#N` [Example 11, 2-(4-(4-(aminomethyl)-8-cyclopropyl-1-oxo-1,2-dihydrophthalazin-6-yl)-1-methyl-1H-pyrazol-5-yl)-4-chloro-3-fluoro-6-(pyrrolidin-1-yl)benzonitrile] was run?
Answer: 0.184 µM

Question: For `Cn1ncc(-c2ccc3c(=O)[nH]nc(CN)c3c2)c1-c1c(F)c(Cl)cc(N2CC(F)C2)c1C#N` [Example 34, 2-(4-(4-(aminomethyl)-1-oxo-1,2-dihydrophthalazin-6-yl)-1-methyl-1H-pyrazol-5-yl)-4-chloro-3-fluoro-6-(3-fluoroazetidin-1-yl)benzonitrile], which IC50 is on record?
Answer: 0.084 µM
